From US20160355684A1, “ANTHRAQUINONE DYE USED FOR A COLOR FILTER OF A LCD” (DOW GLOBAL TECHNOLOGIES LLC, priority 2014, published 2016)

Experiments:
Type in all cases: physicochemical
[1] = Solubility of dye in PGMEA; conditions: solvent PGMEA (propylene glycol monomethyl ether acetate)
[2] = Thermal stability of films (chromaticity difference ΔEab after baking); conditions: for ΔEab after baking at 230° C. for 1 h: film of dye in alkaline soluble acrylic resin on glass, hard bake 230° C., air, smaller value = better heat resistance
Protocol: 0.15 g of Dye 1, 1.35 g PGMEA and 1.00 g of alkaline soluble acrylic resin solution (MIPHOTO RPR4022, supplied from Miwan Commercial Co., Ltd., 25 to 35% of solid content in (methyl 3-methoxypropionate)) were mixed and stirred for overnight at room temperature using a shaker. The solution was filtered with a 0.45 μm Acrodisc CR PTFE filter to get rid of big particles. Then the filtered solution was spin coated onto a clean glass substrate with 400 rpm spin speed for 18 seconds. The obtained film was first dried at 90° C. under air atmosphere for 30 minutes, and then hard baked at 230° C. under air atmosphere for 1 hour. The CIE values (xyY values and lab values) and the UV-Vis were measured before and after the hard bake.
The obtained dry film was further baked at 230° C. under air for 1 hour to evaluate thermal stability of the film. Optical performance after baking (ΔEab value) was 1.8, and the one of after further baking was 2.7. A smaller ΔEab value indicates better heat resistance.
(4) Thermal Stability of Films (Chromaticity):
The wet film after spin coating is dried in oven at 90° C. for 30 minutes and then soft baked at 150° C. for 15 minutes. The chromaticity coordinates (L, a, b) are recorded with UltraScan Pro (Hunterlab) colorimeter. D65/10 light source is used and results are based on CIE Lab coordinates. After that the film is hard baked at target temperature (230° C.) for 1 hour and the new chromaticity coordinates (L′, a′, b′) are recorded with the method above. The thermal stability of a film is indicated by the difference of chromaticity coordinate after baking at 230° C. represented by the following formula;
ΔE=√{square root over ((L−L′)^2+(a−a′)^2+(b−b′)^2)}

[3] = Thermal stability of dyes (mass loss measured by TGA); conditions: dye itself
Protocol: (1) Thermal Stability of Dyes (Mass Loss Measured by TGA):
The thermal stability of dye itself was determined by the mass loss of dye measured by TGA under air atmosphere at 230° C. for 1 hour. This evaluation reflects chemical stability of the dye itself.

SMILES | Solubility in PGMEA (wt %) [1] [wt %] | ΔEab after baking at 230° C. for 1 h [2] | weight loss at 230° C. for 1 h in air from TGA [3] [%] | Optical performance after baking (ΔEab value) ([2]; Dye 1 film, after baking) | ΔEab value after further baking ([2]; Dye 1 film, further baked at 230° C. under air for 1 hour)
CC(C)Nc1ccc(NC(C)C)c2c1C(=O)c1ccccc1C2=O [Solvent Blue 36, reference compound] | 1.92 | 33 (color almost | – | – | –
Cc1cc(C)c(Nc2ccc(Nc3c(C)cc(OCCC[Si](C)(O[Si](C)(C)C)O[Si](C)(CCCOc4cc(C)c(Nc5ccc(Nc6c(C)cc(C)cc6C)c6c5C(=O)c5ccccc5C6=O)c(C)c4)O[Si](C)(C)C)cc3C)c3c2C(=O)c2ccccc2C3=O)c(C)c1 (centres unmarked) [Dye 2] | 11.0 | 3.6 | 6.79 | – | –
Cc1cc(C)c(Nc2ccc(Nc3c(C)cc(C)cc3C)c3c2C(=O)c2ccccc2C3=O)c(C)c1 [Solvent Blue 104, 1,4-bis(mesitylamino)anthraquinone, reference compound] | 0.6 | 7.0 | – | – | –
Cc1cc(C)c(Nc2ccc(Nc3c(C)cc(OCCC[Si](C)(C)O[Si](C)(C)O[Si](C)(C)CCCOc4cc(C)c(Nc5ccc(Nc6c(C)cc(C)cc6C)c6c5C(=O)c5ccccc5C6=O)c(C)c4)cc3C)c3c2C(=O)c2ccccc2C3=O)c(C)c1 [Dye 3] | 9.7 | 1.5 | – | – | –
CC(C[Si](C)(O[Si](C)(C)C)O[Si](C)(C)C)C(=O)OCCNc1ccc(NCCOC(=O)C(C)C[Si](C)(O[Si](C)(C)C)O[Si](C)(C)C)c2c1C(=O)c1ccccc1C2=O (centres unmarked) [(QS), reference compound] | ~4.6 | 24.5 (color changed | – | – | –
Cc1cc(C)c(Nc2ccc(Nc3c(C)cc(OCCC[Si](C)(C)O[Si](C)(C)O[Si](C)(C)CCCOc4cc(C)c(Nc5ccc(Nc6c(C)cc(C)cc6C)c6c5C(=O)c5ccccc5C6=O)c(C)c4)cc3C)c3c2C(=O)c2ccccc2C3=O)c(C)c1 [Dye 2] | – | – | 2.49 | – | –
Cc1cc(OCCC[Si](C)(O[Si](C)(C)C)O[Si](C)(C)C)cc(C)c1Nc1ccc(Nc2c(C)cc(OCCC[Si](C)(O[Si](C)(C)C)O[Si](C)(C)C)cc2C)c2c1C(=O)c1ccccc1C2=O [Dye 1] | 17 | 3.2 | 7.74 | 1.8 | 2.7
